Data on one compound can be found in patent US20140309310A1 (GACHON UNIVERSITY OF INDUSTRY-ACADEMIC COOPERATION …, priority 2011, published 2014).

SMILES strings stand for the structures.

The subject of experiment [1] is osteopenia induced by aging (female C57BL/6J mice). The experiment can be described thus: Whole-body bone mineral density and bone mass by DEXA in mice with osteoporosis induced by aging. The settings on record: DDS 2 mg/kg over 12 weeks. In kind it is in vivo, mouse. On the procedure:
The mice were acclimated for 1 week, housed at a temperature of 21±1° C. and a humidity of 60%, and allowed access to food ad libitum.

Experiment [2] has as its system ovariectomy-induced osteoporosis (ovariectomized BALB/c mice). The experiment can be described thus: Whole-body bone mineral density and bone mass by dual energy X-ray absorptiometry (DEXA) in ovariectomized mice. In kind it is in vivo, mouse. The settings on record: DDS oral 2 mg/kg from 1 week before to 12 weeks after ovariectomy, whole body DEXA at 12 weeks, P<0.05 vs OVX. An excerpt:
10-week-old BALB/c mice were subjected to ovariectomy (OVX) to make experimental animal models with osteopenia induced by OVX. […] All the animal studies were approved by the Animal Research Ethical Committee of Seoul National University.

In another experiment the test system is Caenorhabditis elegans. Particulars: reported; cited from earlier work.
The test system of experiment [3] is ovariectomy-induced osteoporosis (ovariectomized BALB/c mice). The experiment can be described thus: High-resolution micro-CT imaging of femoral trabecular bone, trabecular thickness and separation in ovariectomized mice. Type of experiment: in vivo, mouse. Particulars: OVX mice, DDS oral 2 mg/kg. On the procedure: 10-week-old BALB/c mice were subjected to ovariectomy (OVX) to make experimental animal models with osteopenia induced by OVX. […] All the animal studies were approved by the Animal Research Ethical Committee of Seoul National University. The trabecular bone of femoral region adjacent to the mouse shin was imaged by radiography using high-resolution micro-CT. The right limb of the mice was excised and stored in 10% formalin for one day. Then, the bone tissue was stored in 70% alcohol at 4° C. until use in analysis. The bone tissue was imaged by computer tomography using Skyscan 1076 Desktop X-ray Microtomograph (Skyscan, Belgium) at a tube voltage of 100 kV and an exposure current of 200 μA. For the acquired images, bone mineral density (BMD) and bone volume (BV) were measured using Skyscan CTan ver. 1.5.0 and Shortcut to ANT image analysis program (Skyscan, Belgium), and the acquired images were reconstituted into three-dimensional images. In addition, trabecular thickness (Tb. Th) and trabecular separation (Tb. Sp), which are the indices of morphological microstructures on the micro CT images, were measured, and the results of the measurement are shown in FIG. 3.

As for `Nc1ccc(S(=O)(=O)c2ccc(N)cc2)cc1` [DDS, diaminodiphenylsulfone], in experiment [1] (female C57BL/6J), the “change in bone mass, 8-month-old mice” value is listed as “no significant change” and the “change in bone mineral density, 8-month-old mice” value was “no significant change”. Also, in experiment [1] (female mice), the “increase in bone mass, 30-month-old mice” value is recorded as 9.6% and the “increase in bone mineral density, 30-month-old mice” value was determined as 5.11%. Also, in experiment [2], the “increase in bone mass compared to the positive control group (OVX)” value was found to be 9.13% and the “increase in bone mineral density compared to the positive control group (OVX)” value is listed as 4.09%. Further, the “increase of life span of Caenorhabditis elegans” value in the experiment on Caenorhabditis elegans is reported as 20-30%. In addition, the “microstructure of the bone section (micro-CT three-dimensional image)” value in experiment [3] (femoral trabecular bone) is on record as “as dense as that of the negative control group”. Also, in experiment [3] (micro-CT of femoral region), the “trabecular separation (Tb. Sp)” value is given as “levels similar to those of the negative control group” and the “trabecular thickness (Tb. Th)” value is reported as “levels similar to those of the negative control group”.
